# Results published in ChEMBL document CHEMBL5154671 (Eur J Med Chem, 2022).
# Calls of active or inactive are those of the source. The rule behind the calls is not given here.
# Assays:
# Mus musculus [1] = assay: Anti-NASH activity in high-fat/high-sugar diet and CCl4-induced nonalcoholic steatohepatitis male C57BL/6 mouse assessed as decrease in liver non-esterified fatty acid contents at 100 mg/kg, po administered for 4 weeks; type: functional, organism-based
# Mus musculus [2] = assay: Anti-NASH activity in high-fat/high-sugar diet and CCl4-induced nonalcoholic steatohepatitis male C57BL/6 mouse assessed as decrease in lobular inflammation score at 100 mg/kg, po administered for 4 weeks; type: functional, organism-based
# Mus musculus [3] = assay: Anti-NASH activity in high-fat/high-sugar diet and CCl4-induced nonalcoholic steatohepatitis male C57BL/6 mouse assessed as decrease in disease activity score at 100 mg/kg, po administered for 4 weeks; type: functional, organism-based
# Mus musculus [4] = assay: Antioxidant activity in high-fat/high-sugar diet and CCl4-induced nonalcoholic steatohepatitis male C57BL/6 mouse assessed as increase in SOD1 mRNA expression at 100 mg/kg, po administered for 4 weeks; type: functional, organism-based
# Mus musculus [5] = assay: Anti-fibrotic activity in high-fat/high-sugar diet and CCl4-induced nonalcoholic steatohepatitis male C57BL/6 mouse assessed as decrease in TIMP-1 mRNA expression at 100 mg/kg, po administered for 4 weeks; type: functional, organism-based
# Mus musculus [6] = assay: Anti-NASH activity in high-fat/high-sugar diet and CCl4-induced nonalcoholic steatohepatitis male C57BL/6 mouse assessed as decrease in ACC mRNA expression at 100 mg/kg, po administered for 4 weeks; type: functional, organism-based
# Mus musculus [7] = assay: Hypolipidemic activity in Triton1339W-induced hyperlipidemic ICR mouse model assessed as reduction in plasma TG level at 80 mg/kg, administered once daily for 5 days; type: functional, organism-based; conditions: time 5.0 day
# Mus musculus [8] = assay: Anti-inflammatory activity in high-fat/high-sugar diet and CCl4-induced nonalcoholic steatohepatitis male C57BL/6 mouse assessed as decrease in TNF-alpha mRNA expression at 100 mg/kg, po administered for 4 weeks; type: functional, organism-based
# [9] = biological target: T1, Peroxisome proliferator-activated receptor gamma (Homo sapiens, UniProt P37231); assay: Agonist activity at human PPARgamma measured by dual luciferase reporter gene assay
# T1 sequence (P37231 whole entry): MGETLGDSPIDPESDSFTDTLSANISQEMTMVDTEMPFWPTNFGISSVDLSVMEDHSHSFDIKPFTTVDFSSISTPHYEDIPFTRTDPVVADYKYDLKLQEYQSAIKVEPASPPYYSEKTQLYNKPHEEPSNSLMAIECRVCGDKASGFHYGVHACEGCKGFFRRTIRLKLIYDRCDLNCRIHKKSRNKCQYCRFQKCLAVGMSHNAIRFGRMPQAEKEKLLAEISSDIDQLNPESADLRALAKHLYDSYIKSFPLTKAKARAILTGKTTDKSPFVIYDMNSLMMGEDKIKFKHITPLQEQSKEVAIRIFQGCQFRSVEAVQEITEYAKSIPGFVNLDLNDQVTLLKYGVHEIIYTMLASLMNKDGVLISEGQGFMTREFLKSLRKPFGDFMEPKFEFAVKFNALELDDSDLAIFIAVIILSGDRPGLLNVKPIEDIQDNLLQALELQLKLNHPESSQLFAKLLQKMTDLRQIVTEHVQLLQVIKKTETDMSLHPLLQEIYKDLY
# [10] = Acute toxicity in ICR mouse assessed as change in serum ALB level at 500 mg/kg, IG; type: organism-based; conditions: in vivo, po
# Mus musculus [11] = assay: Anti-NASH activity in high-fat/high-sugar diet and CCl4-induced nonalcoholic steatohepatitis male C57BL/6 mouse assessed as decrease in hepatocyte ballooning score at 100 mg/kg, po administered for 4 weeks; type: functional, organism-based
# [12] = Acute toxicity in ICR mouse assessed as change in serum TBIL level at 500 mg/kg, IG; type: organism-based; conditions: in vivo, po
# [13] = Acute toxicity in ICR mouse assessed as change in serum ALT level at 500 mg/kg, IG; type: organism-based; conditions: in vivo, po
# Mus musculus [14] = assay: Protection against CCl4-induced liver fibrosis in male C57BL/6 mouse assessed as decrease in collagen area in liver at 100 mg/kg measured by masson staining; type: functional, organism-based
# [15] = Acute toxicity in ICR mouse assessed as change in serum DBIL level at 500 mg/kg, IG; type: organism-based; conditions: in vivo, po
# Mus musculus [16] = assay: Anti-NASH activity in high-fat/high-sugar diet and CCl4-induced nonalcoholic steatohepatitis male C57BL/6 mouse assessed as increase in HDL level at 100 mg/kg, po administered for 4 weeks; type: functional, organism-based
smiles,measurement,setting,value
COc1ccc(/C=C/c2cc(OC)cc(OCc3ccc(OCC(=O)O)c(F)c3)c2)cc1,Activity,Mus musculus [1],Active
same,Activity,Mus musculus [2],Active
same,Activity,Mus musculus [3],Active
same,Activity,Mus musculus [4],Active
same,Activity,Mus musculus [5],Active
same,Activity,Mus musculus [6],Active
same,Activity,Mus musculus [7],Active
same,Activity,Mus musculus [8],Active
same,EC50,[9],28.5 µM
same,Activity,[10],Non-Toxic
same,Activity,Mus musculus [11],Active
same,Activity,[12],Non-Toxic
same,Activity,[13],Non-Toxic
same,Activity,Mus musculus [14],Active
same,Activity,[15],Non-Toxic
same,Activity,Mus musculus [16],Active
